From ChEMBL document CHEMBL4680193, “Isoindoline scaffold-based dual inhibitors of HDAC6 and HSP90 suppressing the growth of lung cancer in vitro and in vivo” (Eur J Med Chem, 2020)
The source made the active and inactive calls. The calls are words filed in the database; no cut-off is given here.

Legend:
[1] = target: T1, Protein deacetylase HDAC6 (Homo sapiens, UniProt Q9UBN7); test: Inhibition of recombinant human HDAC6 using RHK-K(Ac)-AMC as substrate by fluorescence based assay
T1 sequence (Q9UBN7 whole entry): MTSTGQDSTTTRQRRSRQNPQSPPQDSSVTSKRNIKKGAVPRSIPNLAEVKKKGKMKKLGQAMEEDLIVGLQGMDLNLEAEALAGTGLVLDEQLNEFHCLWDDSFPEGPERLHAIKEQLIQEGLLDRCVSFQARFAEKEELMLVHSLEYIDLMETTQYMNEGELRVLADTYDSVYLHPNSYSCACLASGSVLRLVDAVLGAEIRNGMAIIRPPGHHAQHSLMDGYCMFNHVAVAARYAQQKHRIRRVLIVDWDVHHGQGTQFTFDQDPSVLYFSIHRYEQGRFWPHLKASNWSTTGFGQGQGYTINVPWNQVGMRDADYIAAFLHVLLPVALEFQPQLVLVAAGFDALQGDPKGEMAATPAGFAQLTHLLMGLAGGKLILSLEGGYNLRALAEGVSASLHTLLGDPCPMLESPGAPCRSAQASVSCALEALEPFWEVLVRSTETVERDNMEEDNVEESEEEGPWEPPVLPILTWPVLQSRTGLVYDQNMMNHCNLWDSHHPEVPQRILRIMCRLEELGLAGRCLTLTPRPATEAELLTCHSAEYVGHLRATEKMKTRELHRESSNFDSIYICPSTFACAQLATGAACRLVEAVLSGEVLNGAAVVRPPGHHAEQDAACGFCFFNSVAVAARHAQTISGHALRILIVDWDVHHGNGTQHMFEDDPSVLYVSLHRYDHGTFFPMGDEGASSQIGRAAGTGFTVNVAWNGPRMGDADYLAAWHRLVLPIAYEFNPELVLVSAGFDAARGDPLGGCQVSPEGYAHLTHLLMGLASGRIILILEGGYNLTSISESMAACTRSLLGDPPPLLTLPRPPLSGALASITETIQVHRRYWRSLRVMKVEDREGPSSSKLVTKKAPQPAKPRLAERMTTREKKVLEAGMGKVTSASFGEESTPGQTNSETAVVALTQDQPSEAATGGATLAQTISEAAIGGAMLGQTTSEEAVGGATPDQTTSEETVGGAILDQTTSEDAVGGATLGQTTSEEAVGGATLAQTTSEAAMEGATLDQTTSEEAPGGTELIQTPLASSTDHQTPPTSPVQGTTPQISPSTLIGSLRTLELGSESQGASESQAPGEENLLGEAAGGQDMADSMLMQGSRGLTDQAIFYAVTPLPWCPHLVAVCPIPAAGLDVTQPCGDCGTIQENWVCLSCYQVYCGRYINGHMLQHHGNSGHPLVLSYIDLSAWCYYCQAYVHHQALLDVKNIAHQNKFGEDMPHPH

Histone deacetylase = assay type: tissue-based, Homo sapiens; settings: hela
Histone deacetylase 8 = target: T2, Histone deacetylase 8 (Homo sapiens, UniProt Q9BY41); test: Inhibition of recombinant human HDAC8 using RHK-K(Ac)-AMC as substrate by fluorescence based assay
T2 sequence (Q9BY41 whole entry): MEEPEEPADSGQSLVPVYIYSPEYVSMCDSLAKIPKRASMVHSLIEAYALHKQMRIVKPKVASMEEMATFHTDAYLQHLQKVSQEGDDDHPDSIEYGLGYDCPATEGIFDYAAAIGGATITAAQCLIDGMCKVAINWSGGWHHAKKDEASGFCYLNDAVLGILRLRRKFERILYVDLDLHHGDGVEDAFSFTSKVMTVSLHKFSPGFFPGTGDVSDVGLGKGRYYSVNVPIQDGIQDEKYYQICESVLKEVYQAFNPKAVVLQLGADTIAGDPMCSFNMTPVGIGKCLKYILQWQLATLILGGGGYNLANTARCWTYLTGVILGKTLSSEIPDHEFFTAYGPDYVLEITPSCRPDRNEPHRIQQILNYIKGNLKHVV

NCI-H1975 [2] = test: cells; assay type: functional; settings: Homo sapiens, time 48 hrs
[3] = target: Heat shock protein HSP 90-alpha (Homo sapiens, UniProt P07900); test: Inhibition of HSP90a (unknown origin)
A549 = test: Growth inhibition of human A549 cells incubated for 48 hrs by SRB assay; assay type: functional
Homo sapiens [4] = species: Homo sapiens; test: Selectivity index, ratio of IC50 for recombinant human HDAC8 to IC50 for recombinant human HDAC6
Histone deacetylase 1 = Histone deacetylase 1 (Homo sapiens, UniProt Q13547); test: Inhibition of recombinant human C-terminal FLAG-His-tagged HDAC1 (1 to 482 residues) expressed in Sf21 cells using RHK-K(Ac)-AMC as substrate incubated for 60 mins by fluorimetry analysis
Histone deacetylase 1, sequence (Q13547 whole entry, the tested form may be a part): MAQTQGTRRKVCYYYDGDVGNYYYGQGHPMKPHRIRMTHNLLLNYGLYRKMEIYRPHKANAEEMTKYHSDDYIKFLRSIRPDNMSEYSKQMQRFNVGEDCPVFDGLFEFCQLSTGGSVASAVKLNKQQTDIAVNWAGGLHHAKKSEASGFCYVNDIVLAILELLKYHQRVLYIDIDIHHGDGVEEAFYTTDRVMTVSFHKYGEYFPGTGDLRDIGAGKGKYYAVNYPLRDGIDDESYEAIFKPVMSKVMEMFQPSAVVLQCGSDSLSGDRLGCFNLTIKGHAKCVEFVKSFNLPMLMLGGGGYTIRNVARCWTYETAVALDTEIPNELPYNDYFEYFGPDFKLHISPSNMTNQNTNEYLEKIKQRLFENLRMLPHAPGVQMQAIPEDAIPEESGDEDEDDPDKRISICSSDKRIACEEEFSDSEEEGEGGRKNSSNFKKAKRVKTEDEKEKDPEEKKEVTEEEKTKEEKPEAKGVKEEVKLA

Homo sapiens [5] = species: Homo sapiens; test: Selectivity index, ratio of IC50 for recombinant human HDAC3 to IC50 for recombinant human HDAC6
Homo sapiens [6] = species: Homo sapiens; test: Selectivity index, ratio of IC50 for recombinant human C-terminal FLAG-His-tagged HDAC1 (1 to 482 residues) expressed in Sf21 cells to IC50 for recombinant human HDAC6
Histone deacetylase 3 = Histone deacetylase 3 (Homo sapiens, UniProt O15379)
Histone deacetylase 3, sequence (O15379 whole entry): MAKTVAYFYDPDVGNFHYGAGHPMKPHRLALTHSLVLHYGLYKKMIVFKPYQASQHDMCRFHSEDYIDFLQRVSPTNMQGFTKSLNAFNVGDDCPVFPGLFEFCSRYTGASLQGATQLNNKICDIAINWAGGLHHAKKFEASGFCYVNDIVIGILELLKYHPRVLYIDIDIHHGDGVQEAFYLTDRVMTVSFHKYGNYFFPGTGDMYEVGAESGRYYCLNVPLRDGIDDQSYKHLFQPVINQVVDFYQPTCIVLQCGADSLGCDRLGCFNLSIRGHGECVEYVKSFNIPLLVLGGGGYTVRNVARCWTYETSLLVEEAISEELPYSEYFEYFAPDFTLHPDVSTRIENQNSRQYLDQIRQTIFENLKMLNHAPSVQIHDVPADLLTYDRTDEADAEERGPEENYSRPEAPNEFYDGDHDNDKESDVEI

NCI-H1975 [7] = test: Antitumor activity against human NCI-H1975 cells xenografted in BALB/c mouse assessed as reduction in tumor growth at 20 mg/kg, ip administered for 2 weeks and measured after 2 week relative to control; assay type: functional; settings: 336 h, read-out: TGI
[8] = target: T3, Heat shock protein HSP90 (Homo sapiens) (UniProt P07900+P08238); test: Inhibition of HSP90 in human NCI-H1975 cells assessed as decrease in Akt Ser473 phosphorylation at 1 to 3 uM measured after 24 hrs by Western blot analysis; assay type: cell-based; settings: dose 1-3 µM
[9] = target: T3, Heat shock protein HSP90 (Homo sapiens); test: Inhibition of HSP90 in human NCI-H1975 cells assessed as decrease in STAT3 Tyr705 phosphorylation at 1 to 3 uM measured after 24 hrs by Western blot analysis; assay type: cell-based; settings: dose 1-3 µM

Compound	IC50 [1] [nM]	IC50 (Histone deacetylase) [nM]	IC50 (Histone deacetylase 8) [nM]	GI50 (NCI-H1975 [2]) [nM]	IC50 [3] [nM]	GI50 (A549; Homo sapiens, A549) [nM]	Ratio IC50 (Homo sapiens [4])	IC50 (Histone deacetylase 1) [nM]	Ratio IC50 (Homo sapiens [5])	Ratio IC50 (Homo sapiens [6])	IC50 (Histone deacetylase 3) [nM]	GI50 (A549) [nM]	inhibition in vivo at 20 mg/kg (NCI-H1975 [7]) [%]	inhibition [8]	inhibition [9]
CC(C)c1cc(C(=O)N2Cc3ccc(NC(=O)CCC(=O)NO)cc3C2)c(O)cc1O	> 10000	> 1000	7320	39000	123	830	–	–	–	–	–	–	–	–	–
CC(C)c1cc(C(=O)N2Cc3ccc(NC(=O)CCCCCCCC(=O)NO)cc3C2)c(O)cc1O	2.12	198.9	> 10000	1070	422	235000	> 4720	1080	233	507	494	–	–	–	–
CC(C)c1cc(C(=O)N2Cc3ccc(NC(=O)CCCCC(=O)NO)cc3C2)c(O)cc1O	330	> 1000	7420	1640	109	870	22.5	6880	8.5	20.8	2810	–	–	–	–
O=C(CCCCCCC(=O)Nc1ccccc1)NO [VORINOSTAT]	–	–	–	–	> 1000	–	–	–	–	–	–	1020	–	–	–
CC(C)c1cc(C(=O)N2Cc3ccc(NCc4ccc(C(=O)NO)cc4)cc3C2)c(O)cc1O	33.3	> 1000	420	130	66	370	12.6	> 10000	296	> 300	9850	–	–	–	–
CN(C)C/C=C/C(=O)Nc1cc2c(Nc3ccc(F)c(Cl)c3)ncnc2cc1O[C@H]1CCOC1 [AFATINIB]	–	–	–	–	–	–	–	–	–	–	–	–	63.8	–	–
CC(C)c1cc(C(=O)N2Cc3ccc(NC(=O)CCCC(=O)NO)cc3C2)c(O)cc1O	68.6	> 1000	–	> 10000	136	> 10000	–	7430	64.3	108	4410	–	–	–	–
COc1c(C)cnc(Cn2cnc3c(Cl)nc(N)nc32)c1C [BIIB021]	–	> 1000	–	200	–	330	–	–	–	–	–	–	–	–	–
CC(C)c1cc(C(=O)N2Cc3ccc(NC(=O)CCCCCCC(=O)NO)cc3C2)c(O)cc1O	2.21	1683	1510	434000	43.9	2920	683	554	175	250	388	–	–	–	–
CC(C)c1cc(C(=O)N2Cc3ccc(NCc4ccc(CN5CCN(C)CC5)cc4)cc3C2)c(O)cc1O	–	–	–	–	–	–	–	–	–	–	–	–	–	Active	Active
CC(C)c1cc(C(=O)N2Cc3ccc(NC(=O)CCCCCC(=O)NO)cc3C2)c(O)cc1O	9.44	521.4	2010	680	43.9	2220	213	3810	234	404	2210	–	–	–	–
CC(C)c1cc(C(=O)N2Cc3ccc(/C=C/C(=O)NO)cc3C2)c(O)cc1O	303	> 1000	675	32000	104	2740	2.2	3150	13.2	10.4	3990	–	–	–	–
